Data as given in patent US20210198277A1, “AMINE-SUBSTITUTED ARYL OR HETEROARYL COMPOUNDS” (Epizyme, Inc., priority 2016, published 2021).

What was measured:
[1] = target: T1, EHMT1 (Homo sapiens, UniProt Q9H9B1); assay: EHMT1 enzyme assay on peptide substrate (EHMT1 PEP); format: biochemical; conditions: read-out: EHMT1 PEP (IC50 μM)
T1 sequence (Q9H9B1 1-1298): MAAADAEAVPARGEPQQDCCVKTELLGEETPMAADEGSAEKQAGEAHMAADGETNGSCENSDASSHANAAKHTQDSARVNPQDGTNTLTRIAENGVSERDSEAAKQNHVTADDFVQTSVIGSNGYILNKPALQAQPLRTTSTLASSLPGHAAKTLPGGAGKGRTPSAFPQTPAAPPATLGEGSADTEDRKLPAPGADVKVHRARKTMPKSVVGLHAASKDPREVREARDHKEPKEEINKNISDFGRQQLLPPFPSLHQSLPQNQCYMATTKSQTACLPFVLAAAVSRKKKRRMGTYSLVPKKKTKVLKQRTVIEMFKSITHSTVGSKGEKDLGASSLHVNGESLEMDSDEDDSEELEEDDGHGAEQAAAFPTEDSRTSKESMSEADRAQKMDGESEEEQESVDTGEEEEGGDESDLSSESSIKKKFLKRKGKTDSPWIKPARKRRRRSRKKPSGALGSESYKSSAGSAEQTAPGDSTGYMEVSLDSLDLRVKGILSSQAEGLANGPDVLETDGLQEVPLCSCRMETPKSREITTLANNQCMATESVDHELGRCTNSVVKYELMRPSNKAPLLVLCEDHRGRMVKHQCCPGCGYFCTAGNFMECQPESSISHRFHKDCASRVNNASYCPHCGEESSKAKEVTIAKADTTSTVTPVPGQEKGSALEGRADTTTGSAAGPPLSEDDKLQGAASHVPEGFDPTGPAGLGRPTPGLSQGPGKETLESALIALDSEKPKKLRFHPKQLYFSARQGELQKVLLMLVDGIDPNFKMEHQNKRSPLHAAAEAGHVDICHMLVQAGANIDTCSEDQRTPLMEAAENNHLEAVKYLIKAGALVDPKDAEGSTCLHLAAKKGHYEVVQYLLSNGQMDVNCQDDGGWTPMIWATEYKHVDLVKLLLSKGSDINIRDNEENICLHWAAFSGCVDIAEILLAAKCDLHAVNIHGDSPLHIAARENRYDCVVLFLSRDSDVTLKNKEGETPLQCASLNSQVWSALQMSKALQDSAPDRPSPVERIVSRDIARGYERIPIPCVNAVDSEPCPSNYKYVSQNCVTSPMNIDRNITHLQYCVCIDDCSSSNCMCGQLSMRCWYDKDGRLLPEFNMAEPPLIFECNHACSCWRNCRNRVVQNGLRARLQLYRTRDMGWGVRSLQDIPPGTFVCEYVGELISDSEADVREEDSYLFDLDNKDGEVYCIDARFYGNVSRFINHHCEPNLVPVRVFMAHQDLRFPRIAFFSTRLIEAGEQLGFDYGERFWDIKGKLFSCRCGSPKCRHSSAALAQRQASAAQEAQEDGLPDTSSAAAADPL

[2] = target: T2, human EHMT2 913-1193 (Homo sapiens, UniProt Q96KQ7); assay: EHMT2 enzyme assay on histone peptide substrate (EHMT2 PEP); format: biochemical; conditions: recombinant human EHMT2 913-1193, histone H3 1-15 peptide, balanced conditions; read-out: EHMT2 PEP (IC50 μM)
T2 construct: recombinant purified human EHMT2 913-1193, Viva; purchased Viva
T2 sequence (Q96KQ7 913-1193): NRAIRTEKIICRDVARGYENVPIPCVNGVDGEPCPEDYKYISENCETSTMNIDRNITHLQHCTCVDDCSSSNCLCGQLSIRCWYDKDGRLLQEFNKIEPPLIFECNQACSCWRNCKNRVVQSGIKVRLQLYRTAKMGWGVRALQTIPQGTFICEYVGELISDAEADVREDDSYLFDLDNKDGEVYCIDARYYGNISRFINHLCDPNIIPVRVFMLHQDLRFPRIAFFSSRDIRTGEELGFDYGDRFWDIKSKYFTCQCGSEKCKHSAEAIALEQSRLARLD
Method in brief: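 10-pt 3-fold series, 50 μM top final, 2% DMSO; 30 min preinc w/ 0.031 nM enzyme; pH 7.5 Bicine/TCEP buffer; ^3H-SAM + biotin-histone peptide, 60 min RT; SAM quench; streptavidin Flashplate capture, TopCount.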

IC50 [1] [µM]	IC50 [2] [µM]	Compound
0.1 to 1	0.1 to 1	CNc1ccnc(Nc2cc(OCCCN3CCCC3)c3cn[nH]c3c2)n1 [Compound 538, N^4-methyl-N^2-(4-(3-(pyrrolidin-1-yl)propoxy)-1H-indazol-6-yl)pyrimidine-2,4-diamine]
> 10	1 to 10	CNc1ccnc(Nc2cc(OCCCN3CCCC3)c3[nH]ncc3c2)n1 [Compound 539]
> 10	> 10	CNc1ccnc(NC2CCCNC2)n1 (stereo not shown) [Compound 541, N^4-methyl-N^2-(piperidin-3-yl)pyrimidine-2,4-diamine]
> 10	> 10	CNc1ccnc(NC2CCNCC2)n1 [Compound 542, N^4-methyl-N^2-(piperidin-4-yl)pyrimidine-2,4-diamine]
> 10	> 10	CCCC1(Nc2nccc(NC)n2)CCCNC1 (stereo not shown) [Compound 544]
> 10	> 10	CCCC1(Nc2nccc(NC)n2)CCNCC1 [Compound 545]
> 10	> 10	CNc1ccnc(NC2(C)CCCNC2)n1 (stereo not shown) [Compound 546, N^4-methyl-N^2-(3-methylpiperidin-3-yl)pyrimidine-2,4-diamine]
> 10	> 10	CNc1ccnc(NC2(C)CCNCC2)n1 [Compound 547, N^4-methyl-N^2-(4-methylpiperidin-4-yl)pyrimidine-2,4-diamine]
> 10	> 10	CNc1ccnc(N[C@@H]2CC[C@H](N)C2)n1 [Compound 548, N^2-((1R,3S)-3-aminocyclopentyl)-N^4-methylpyrimidine-2,4-diamine]
> 10	> 10	CCCCN1CCCC(C)(Nc2nccc(NC)n2)C1 (stereo not shown) [Compound 549, N^2-(1-butyl-3-methylpiperidin-3-yl)-N^4-methylpyrimidine-2,4-diamine]
> 10	> 10	CCCCN1CCC(C)(Nc2nccc(NC)n2)CC1 [Compound 550, N^2-(1-butyl-4-methylpiperidin-4-yl)-N^4-methylpyrimidine-2,4-diamine]
0.1 to 1	0.1 to 1	CNc1cc(C)nc(Nc2ccc(OC)c(OCCCN(C)C3CCC3)c2)n1 [Compound 551, N^2-(3-(3-(cyclobutyl(methyl)amino)propoxy)-4-methoxyphenyl)-N^4,6-dimethylpyrimidine-2,4-diamine]
> 10	> 10	c1nc(NC2CCNCC2)ncc1OCCCN1CCCC1 [Compound 552]
> 10	> 10	CN1CCC(COc2cnc(NCC3CCOCC3)nc2)C1 (stereo not shown) [Compound 553]
> 10	> 10	CN1CCC(COc2ccc(NC3CCNCC3)nc2)C1 (stereo not shown) [Compound 554]
> 10	> 10	CN1CCC(COc2cnc(NC3CCNCC3)nc2)C1 (stereo not shown) [Compound 555]
> 10	> 10	c1nc(NC2CCNCC2)ncc1OCC1CCN(C2CC2)C1 (stereo not shown) [Compound 556]
> 10	> 10	c1nc(NC2CCOCC2)ncc1OCC1CCN(C2CC2)C1 (stereo not shown) [Compound 557]
< 0.1	0.1 to 1	CNc1cc(C)nc(Nc2cnc(OC)c(OC[C@H]3CCN(C4CC4)C3)c2)n1 [Compound 558]
< 0.1	0.1 to 1	CNc1cc(C)nc(Nc2ccc(OC)c(OCC3CN(C(C)C)C3)c2)n1 [Compound 559]
0.1 to 1	0.1 to 1	CCN1CC(C(O)Oc2cc(Nc3nc(C)cc(NC)n3)ccc2OC)C1 (stereo not shown) [Compound 560]
> 10	> 10	CNc1cc(C)nc(Nc2ccc(OC)c(O)c2)n1 [Compound 561]
1 to 10	1 to 10	CCN1CC(C(C#N)Oc2cc(Nc3nc(C)cc(NC)n3)ccc2OC)C1 (stereo not shown) [Compound 562]
< 0.1	< 0.1	CNc1cc(C)nc(Nc2ccc(OC)c(OC[C@@H]3CCN(C4CCC4)C3)c2)n1 [Compound 563]
< 0.1	< 0.1	CCN1CC(COc2cc(Nc3nccc4[nH]ccc34)ncc2OC)C1 [Compound 564]

IC50 [1] [µM]	IC50 [2] [µM]	Compound
1 to 10	1 to 10	COc1cc(Nc2nc(C)cc3[nH]ncc23)ncc1OCCCN1CCCC1 [Compound 565]
1 to 10	1 to 10	CCN1CC(COc2cc(Nc3cc(NC)ncc3F)ncc2OC)C1 [Compound 566]
1 to 10	1 to 10	CCN1CC(COc2cc(Nc3cc(NC)nc(C)c3F)ncc2OC)C1 [Compound 567]
< 0.1	0.1 to 1	CNc1cc(C)nc(Nc2ccc(OC)c(OC[C@@H]3CCN(C4(C)CC4)C3)c2)n1 [Compound 568]
< 0.1	0.1 to 1	CCN1CC(COc2cc(Nc3cc(NC)cc(C)n3)cnc2OC)C1 [Compound 569]
< 0.1	< 0.1	CCN1CC[C@@H](COc2cc(Nc3nc(C)cc(NC)n3)ccc2OC)C1 [Compound 571]
> 10	> 10	COc1ccc(NC2CCNCC2)cc1OCCCN1CCCC1 [Compound 572]
1 to 10	1 to 10	COc1ccc(NC2CCCNC2)cc1OCCCN1CCCC1 (stereo not shown) [Compound 573]
1 to 10	1 to 10	CNc1cc(C)nc(Nc2ccc(OC)c(OCCCN3CC4(CC4)C3)c2)n1 [Compound 574]
0.1 to 1	1 to 10	CNc1cc(C)nc(Nc2ccc(OC)c(OCC3CN(C(C)C)C3)c2)n1 [Compound 575]
< 0.1	0.1 to 1	CNc1cc(C)nc(Nc2ccc(OC)c(OCC3CN(C4CCC4)C3)c2)n1 [Compound 576]
0.1 to 1	1 to 10	CNc1cc(C)nc(Nc2ccc(OC)c(OCC3CN(C4CCCC4)C3)c2)n1 [Compound 577]
1 to 10	1 to 10	COc1cc(NC2CCCNC2)ccc1OCCCN1CCCC1 (stereo not shown) [Compound 578]
1 to 10	1 to 10	COc1cc(NC2CCNCC2)ccc1OCCCN1CCCC1 [Compound 579]
> 10	> 10	CNc1cc(C)nc(Nc2ccc(OC)c(OCC3CN(C4CCOC4)C3)c2)n1 (stereo not shown) [Compound 580]
> 10	1 to 10	COc1cnc(Nc2cccc3[nH]ncc23)cc1OCCCN1CCCC1 [Compound 581]
> 10	> 10	COc1ccc(Nc2nccc3[nH]ncc23)cc1OCCCN1CCCC1 [Compound 582]
1 to 10	1 to 10	COc1cnc(Nc2ccnc3[nH]ncc23)cc1OCCCN1CCCC1 [Compound 583]
> 10	> 10	CCN1CC(COc2cc(Nc3cccc4nncn34)ncc2OC)C1 [Compound 584]
1 to 10	1 to 10	COc1cnc(Nc2cccc3nccn23)cc1OCCCN1CCCC1 [Compound 585]
1 to 10	1 to 10	COc1cnc(Nc2cccn3ccnc23)cc1OCCCN1CCCC1 [Compound 586]
< 0.1	< 0.1	COc1cc2c(C3CCN(C)CC3)nc(N(C)C)nc2cc1OCCCN1CCCC1 [Compound 587]
> 10	> 10	CC(C)N1CC(COc2cnc(NC3CCNCC3)nc2)C1 [Compound 588]
> 10	> 10	COc1cnc(Nc2cccc3cncn23)cc1OCCCN1CCCC1 [Compound 589]
< 0.1	< 0.1	COc1ccc(Nc2nc(C)cc(NCC3CCOCC3)n2)cc1OCCCN1CCCC1 [Compound 590]
